Calls of active or inactive are those of the source. The rule behind the calls is not given here.

In this assay the test system is Spermatozoa. Description: Spermatostatic activity in rat cauda epididymal spermatozoa assessed as motility effect at 0.5 mg/mL for 30 mins by microscopic method. The class given is functional, cell-based.

On to `C=C(CC[C@@H](C)[C@H]1[C@@H](O)C[C@H]2[C@@H]3[C@@H](O)C=C4C[C@@H](O[C@@H]5O[C@@H](C)[C@@H](OC(C)=O)[C@@H](O)[C@@H]5O)CC[C@]4(C)[C@H]3CC[C@]12C)C(C)C`, for which the outcome was Active.

The values above are taken from ChEMBL document CHEMBL1147315, “A new spermatostatic glycoside from the soft coral Sinularia crispa” (J Nat Prod, 1989).
